Measurements published in paper PMC9114115, “Property space mapping of Pseudomonas aeruginosa permeability to small molecules” (Scientific Reports, 2022).
“And” between values parts separate entries of the source, which are not always exact repeats. Equal entries are not always repeated. Structures can show the parent of a compound that is named as a salt.

Experiments:
[1] = test system: P. aeruginosa PAO1-Pore cells; experiment: LC–MS quantification of intracellular accumulation, PAO1-Pore; conditions: 10-80 µM; for Concentration slopes of accumulation, PAO1-Pore_1 min: 1 min incubation; for Concentration slopes of accumulation, PAO1-Pore_40 min: 40 min incubation;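 on all read-outs here: slope of accumulation versus external concentration fitted as a line through zero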
Protocol: (§1) PAO1-Pore and PΔ3-Pore were grown at 37 °C overnight with shaking at 225 rpm in 50 mM MOPS-M9 (pH 7.2) Minimal Medium supplemented with 1% glycerol[42],[43].
(§2) The next day, cells were sub-cultured (1.5:100) in fresh MOPS-M9 medium and grown for 16 h. The cultures were then split into two flasks and one of them was induced with 0.1 mM IPTG. Cells incubated for additional 4 h until OD600 reached ~ 1.0 and harvested by centrifugation at 3,275xg for 20 min in RT, washed and concentrated 10X in the spent medium. Assays were performed in 96-well plates in a final volume of […]. Cells were incubated with 10, 20, 40, 80 µM of compounds and after 1- and 40-min incubation at RT, 100 µL cell aliquots were collected by vacuum filtration onto 1.0 µm Glass Fiber Type B filters. For no-cell controls, compounds were diluted to 10, 20, 40, 80 µM final concentration in the same medium, incubated for 1 min and 40 min and filtered onto the same plates. The cell loaded and cell-free filters were dried, removed from plates and placed into 100% methanol at -80 °C for at least 10 min. Filter-bound material was extracted by water bath sonication for 1 min. Cell and filter debris were separated by ultracentrifugation at 45,000 rpm (TLA55 rotor, Beckman) for 8 min at 16 °C and the pellet re-extracted with 80% methanol in water by sonication for 15 min followed by ultracentrifugation at the same conditions. Supernatants from two extractions were combined. For the compound quantification, 5 µL of solution was analyzed in triplicate.
(§3) Calibration curves for MS analyses of compounds were generated in the same experiment by mixing compound at increasing concentrations with the sonicated PAO1 cell extracts. […] Azithromycin was used as a positive control in all experiments.
(§4) Samples were processed in positive ion mode. An Eclipse plus C18 Rapid Resolution HD column (1.8 μm, 2.1 × 50 mm, Agilent, USA) was used for separation. The flow rate was 0.6 mL/min using the following gradient: 0 to 1 min (0- 20% ACN), 1 to 4 min (20- 80% ACN), 4 to 5.1 min (80–100% ACN), 5.1 to 6.30 (100% ACN). Solvents contained 0.1% formic acid to promote positive ion formation in the electrospray. […] Data were analyzed using Agilent Masshunter workstation quantitative analysis v. B.10 software.

P. aeruginosa PΔ3 cells = conditions: 10-80 µM; for Concentration slopes of accumulation, PΔ3_1 min: 1 min incubation; for Concentration slopes of accumulation, PΔ3_40 min: 40 min incubation;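 on all read-outs here: slope of accumulation versus external concentration fitted as a line through zero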
Protocol: as §1, §2, §3, §4

[2] = test system: P. aeruginosa PΔ3-Pore cells; experiment: LC–MS quantification of intracellular accumulation, PΔ3-Pore; conditions: 10-80 µM; for Concentration slopes of accumulation, PΔ3-Pore_1 min: 1 min incubation; for Concentration slopes of accumulation, PΔ3-Pore_40min: 40 min incubation;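 on all read-outs here: slope of accumulation versus external concentration fitted as a line through zero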
Protocol: as §1, §2, §3, §4

P. aeruginosa PAO1 cells = experiment: LC–MS quantification of intracellular accumulation, PAO1; conditions: 10-80 µM; for Concentration slopes of accumulation, PAO1_1 min: 1 min incubation; for Concentration slopes of accumulation, PAO1_40 min: 40 min incubation;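 on all read-outs here: slope of accumulation versus external concentration fitted as a line through zero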
Protocol: as §1, §2, §3, §4

P. aeruginosa PAO1 = experiment: MIC by two-fold dilution, wild type PAO1; type: cell-based, Pseudomonas aeruginosa; conditions: Pseudomonas aeruginosa; PAO1, MOPS-M9 medium; read-out: MICs
Protocol: (§5) In all experiments, P. aeruginosa PAO1-Pore (PAO1 attTn7::PLAC-fhuA) and PΔ3-Pore (ΔmexAB ΔmexCD ΔmexXY attTn7::PLAC-fhuA) strains were used[29]. Strains were routinely grown in Luria–Bertani (LB) or MOPS-M9 medium at 37 °C with aeration. MICs shown in Tables 1 and 2 were determined by a two-fold dilution method in LB broth and MOPS-M9 medium, respectively, following the previously described protocol.

P. aeruginosa PAO1-Pore = experiment: MIC by two-fold dilution, hyperporinated PAO1-Pore; type: cell-based, Pseudomonas aeruginosa
Protocol: as §5

P. aeruginosa PΔ3-Pore = experiment: MIC by two-fold dilution, barrierless PΔ3-Pore; type: cell-based, Pseudomonas aeruginosa
Protocol: as §5

Row | Compound | Concentration slopes of accumulation, PAO1-Pore_1 min [1] | Concentration slopes of accumulation, PAO1-Pore_40 min [1] | Concentration slopes of accumulation, PΔ3_1 min (P. aeruginosa PΔ3 cells) | Concentration slopes of accumulation, PΔ3_40 min (P. aeruginosa PΔ3 cells) | Concentration slopes of accumulation, PΔ3-Pore_1 min [2] | Concentration slopes of accumulation, PΔ3-Pore_40min [2] | Concentration slopes of accumulation, PAO1_1 min (P. aeruginosa PAO1 cells) | Concentration slopes of accumulation, PAO1_40 min (P. aeruginosa PAO1 cells) | MIC (P. aeruginosa PAO1) | MICs (P. aeruginosa PAO1-Pore; PAO1-Pore, LB broth, Table S2) | MIC (P. aeruginosa PAO1-Pore; Pseudomonas aeruginosa, PAO1, read-out: MICs) | MIC (P. aeruginosa PΔ3-Pore; Pseudomonas aeruginosa, read-out: MICs, P∆3-Pore, MOPS-M9 medium) [µg/mL] | MICs (P. aeruginosa PΔ3-Pore; P∆3-Pore, LB broth, Table S2)
1 | O=C1NC[C@@H](CCC2CCCCC2)N[C@H]1Cc1cc(F)cc(F)c1 [OU-0032508] | 20.38 | 23.85 | 14.00 | 12.40 | 20.49 | 21.97 |  |  |  |  |  |  | 
2 | COCCCC/C(=N\OCCN)c1ccc(C(F)(F)F)cc1 [OU-0000742, Fluvoxamine] | 6.04 | 6.15 | 4.15 | 4.97 | 6.28 | 6.18 | 3.55 | 4.45 |  |  |  |  | 
3 | NC(N)=Nc1nc(CSCCC(N)=NS(N)(=O)=O)cs1 [OU-0000841, Famotidine] | 3.94 | 2.86 | 4.40 | 4.38 | 6.27 | 4.45 | 4.64 | 5.28 |  |  |  |  | 
4 | CC(Cc1ccc(O)cc1)NCC(O)c1cc(O)cc(O)c1 (stereo not shown) [OU-0000755, Fenoterol HBr] | 1.22 | 2.13 | 2.24 | 1.99 | 2.02 | 2.24 | 1.15 | 1.72 |  |  |  |  | 
5 | CCOC(=O)NC(=S)Nc1ccccc1NC(=S)NC(=O)OCC [OU-0000837, Thiophanate] | 3.05 | 1.80 | 3.05 | 1.80 | 14.84 | 13.42 | 3.24 | 3.72 |  |  |  |  | 
6 | COc1ccc2cc1Oc1ccc(cc1)C[C@H]1c3cc(c(OC)cc3CCN1C)Oc1c(OC)c(OC)cc3c1[C@H](C2)N(C)CC3 [OU-0032506, Tetrandrine] | 10.07 | 7.33 | 7.92 | 5.95 | 11.59 | 8.93 | 5.68 | 5.34 |  |  |  |  | 
7 | O=C(c1ccc(OCCN2CCCCC2)cc1)c1c(-c2ccc(O)cc2)sc2cc(O)ccc12 [OU-0000741, Raloxifene HCl] | 56.66 | 52.80 | 69.39 | 35.59 | 83.30 | 77.54 | 45.85 | 26.99 |  |  |  |  | 
8 | O=C1CC2(CCCC2)CC(=O)N1CCCCN1CCN(c2ncccn2)CC1 [OU-0000735, Buspirone HCl] | 7.76 | 7.56 | 6.98 | 6.60 | 9.57 | 9.56 | 6.08 | 7.21 |  |  |  |  | 
9 | CC(CCc1ccccc1)NCC(O)c1ccc(O)c(C(N)=O)c1 (stereo not shown) [OU-0000748, Labetalol HCl] | 21.98 | 21.99 | 17.87 | 22.85 | 23.35 | 22.27 | 15.94 | 14.89 |  |  |  |  | 
10 | CNC(=C[N+](=O)[O-])NCCSCc1ccc(CN(C)C)o1 [OU-0000840, Ranitidine HCl] | 4.44 | 5.25 | 2.62 | 3.53 | 5.13 | 1.37 | 3.41 | 2.83 |  |  |  |  | 
11 | CCN1CCCC1CNC(=O)c1cc(S(N)(=O)=O)ccc1OC.Cl (stereo not shown) [OU-0032505, Sulpiride HCl] | 7.04 | 7.90 | 6.18 | 6.27 | 7.14 | 7.60 |  |  |  |  |  |  | 
12 | CC(C)NCC(O)c1ccc(NS(C)(=O)=O)cc1 (stereo not shown) [OU-0032507, Sotalol HCl] | 8.24 | 3.55 | 3.77 | 2.90 | 15.87 | 9.07 | 4.31 | 4.58 |  |  |  |  | 
13 | COc1ccc(CCN(C)CCCC(C#N)(c2ccc(OC)c(OC)c2)C(C)C)cc1OC (stereo not shown) [OU-0000734, Verapamil HCl] | 16.77 | 15.63 | 12.95 | 12.00 | 17.77 | 18.38 | 12.96 | 13.17 |  |  |  |  | 
14 | CCn1cc(C(=O)O)c(=O)c2cc(F)c(N3CCN(C)CC3)cc21 [OU-0000619, PEFLOXACINE MESYLATE] | 25.74 | 33.41 | 21.54 | 34.80 | 32.20 | 39.09 | 14.50 | 14.54 | 2 µM and 0.9 µg/mL | 0.25 | 0.25 µM and 0.11 µg/mL | 0.03 | 0.0039
15 | CC[C@H]1CN2CCc3cc(OC)c(OC)cc3[C@@H]2C[C@@H]1C[C@H]1NCCc2cc(OC)c(OC)cc21.Cl.Cl [OU-0032504, Emetine DIHCl] | 1.29 | 1.17 | 1.07 | 0.76 | 1.71 | 1.61 | 0.61 | 0.65 |  |  |  |  | 
16 | CCCC[C@H]1CNC(=O)[C@H](Cc2cc(F)cc(F)c2)N1 [OU-0032509] | 23.40 | 20.61 | 14.12 | 18.21 | 27.36 | 24.02 |  |  |  |  |  |  | 
